Read-outs that look alike come from different tables or passages of the source.
Legend:
Mcl-1 = Mcl-1 (Homo sapiens, UniProt Q07820); assay: FP-based binding assay, Mcl-1
Bcl-2 [1] = target: T1, Bcl-2 (Homo sapiens, UniProt P10415); assay: FP-based binding assay, Bcl-2; details: read-out: Bcl-2 Ki ± SD
T1 construct: His-tagged proteins containing; fused on or other part: A 16-residue segment of the flexible loop of Bcl-xL (BCL2L1, Q07817; given as residues 35 to 50) set into the Bcl-2 loop region; His tag with TEV site from the pHis-TEV vector

Bcl-2 [2] = assay: FP-based binding assay, Bcl-2
Bcl-xL = Bcl-xL (Homo sapiens, UniProt Q07817, DEL45-85); assay: FP-based binding assay, Bcl-xL
BxPC-3 = assay: Cell growth inhibition (WST-8), BxPC-3; assay type: cell-based; details: Homo sapiens, BXPC-3, 96 h; 4 days treatment
Method: (§1) Human PC cell lines AsPC-1, BxPC-3 and Capan-2 were cultured in RPMI 1640 medium, while Panc-1 and MiaPaCa were cultured in DMEM medium (Life Technologies), all supplemented with 10% fetal bovine serum (Thermo Scientific HyClone). The rate of cell growth inhibition after treatment with increasing concentrations of the tested compounds was determined by WST-8 assay as described in the manufacturers protocol (Dojindo Molecular Technologies Inc.).

Panc-1 = assay: Cell growth inhibition (WST-8), Panc-1; assay type: cell-based; details: Homo sapiens, PANC-1, 96 h; 4 days treatment
Method: as §1

MiaPaCa-2 = assay: Cell growth inhibition (WST-8), MiaPaCa-2; assay type: cell-based; details: Homo sapiens, MIA PaCa-2, 96 h; 4 days treatment
Method: as §1

AsPc1 = assay: Cell growth inhibition (WST-8), AsPc1; assay type: cell-based; details: Homo sapiens, ASPC1, 96 h; 4 days treatment
Method: as §1

Panc-1 cells = assay: Induction of apoptosis, Annexin V/PI, Panc-1; assay type: cell-based, human
Method: An Annexin-V-FLUOS/Propidium iodide staining kit and ELISA detection kit (Roche Applied Science) were used to detect apoptosis in PC cells. Cells were treated with Mcl-1 inhibitors for different time points, harvested, washed with PBS and apoptosis was quantified according to manufacturer's protocol.

[3] = target: T2, Mcl-1/Bax and Mcl-1/Bak complexes in BxPC-3 cells (Homo sapiens, UniProt Q07820); assay: Immunoprecipitation with Mcl-1 antibody, BxPC-3; assay type: cell-based; details: 4 μM, 24 h
T2 construct: endogenous in cells; host or cells: BxPC-3
Method: Cell lysate (500 μg) were subjected to immunoprecipitation by adding 2.5-5 μg of anti-Mcl-1 antibody and incubation overnight at 4° C. After adding 30 μl of Protein G-agarose (Immunoprecipitation Kit, Sigma) and incubation for 4 h, the samples were centrifuged. The agarose pellet was then washed 7 times, resuspended in Laemmli buffer (Santa Cruz), and boiled for 5 min. Boiled samples were centrifuged, and supernatant was used for Western blot analysis.

[4] = tested on: wild type (WT) murine embryonic fibroblasts (MEF); assay: Induction of apoptosis in MEF WT cells; assay type: cell-based; details: 10 μM, 24 h
[5] = tested on: Bax/Bak-deficient (DKO) MEFs; assay: Induction of apoptosis in MEF DKO cells; assay type: cell-based, murine; details: 10 μM, 24 h
[6] = tested on: activated Bax in BxPC-3 cells; assay: Bax activation, 6A7 anti-Bax immunostaining, BxPC-3; assay type: cell-based, human; details: 24 h
Method: Cells mounted on glass slides were permeabilized with PBS containing 0.3% Triton X-100, and blocked with 1% bovine serum albumin in PBS for 30 min at room temperature, followed with overnight incubation with anti-Bak 6A7 (Calbiochem) at 4° C. After thorough washing of the sections in PBS, a secondary antibody labeled with DyLight 488 (Thermo Scientific) was added and incubated for 2 h at room temperature. Nuclei were visualized with DAPI. Samples were analyzed with a FluoView 500 Confocal Laser Scanning Microscope (Olympus).

[7] = Metabolic stability assay, liver microsomes; assay type: in vitro ADME, mice; details: mouse, pooled mouse liver microsomes; 1 μM compound, 1.2 mg/ml microsomes, 37° C.
Method: Metabolic stability of UMI-77 was determined using the pooled mice liver microsomes (XenoTech, LLC). The conditions of the assay and quantification of UMI-77 in different time points are provided.
The β-NADPH (Sigma-Aldrich) was dissolved in 0.1 M phosphate buffer containing 3.3 mM MgCl2 right before use. The pooled mice liver microsomes (XenoTech, LLC) were diluted with 0.1 M phosphate buffer containing 3.3 mM MgCl2, followed by adding the reduced β-NADPH solution. After initiating the enzymes by adding β-NADPH, the mixture was incubated at 37° C. for […] The tested compound UMI-77 was added into the mixture and incubated at 37° C. The final concentrations of the compound, microsomes, β-NADPH, phosphate buffer and MgCl2 were 1 μM, 1.2 mg/ml, 1 mM, 0.1 M, and 3.3 mM, respectively. An aliquot of 40 μl of mixture was collected at 0, 5, 10, 15, 30, 45 and 60 min and the reaction was stopped immediately by adding 120 μl of ice-cold acetonitrile containing an internal standard (100 mg/mL). The incubation solution was centrifuged at 14000 rpm for 5 minutes to precipitate protein. The UMI-77 concentration was determined by LC/MS/MS (Agilent 1200 HPLC system, Agilent Technologies and QTRAP 3200 mass spectrometer, Applied Biosystems/MDS Sciex). UMI-77 was detected under negative ionization mode and the multiple reaction monitoring (MRM) ion transition was m/z 468.1→221.0.

[8] = tested on: patient bone marrow derived plasma cells; assay: Apoptosis (Annexin V-FITC/PI), multiple myeloma patient cells; assay type: cell-based, human
Method: Blood or bone marrow samples from multiple myeloma patients was obtained from treated or untreated patients after informed consent. Plasma cells were obtained after gradient density centrifugation using Ficoll Hypaque. Some samples were purified for […] population using flow cytometry. In all cases, purity of the plasma cells was higher than 90%, as assessed by morphology.
MM cell lines were cultured in six-well plates and treated as described above. At the end of the treatment the cells were washed and resuspended in annexin binding buffer (10 mM 4-(2-hydroxyethyl)-1-piperazineethanesulfonic acid pH 7.4, 140 mM NaCl, 2.5 mM CaCl2) after which Annexin V-FITC and Propodium Iodide solution was added (5 micro L each) according to manufactures protocol (BD Bioscences). Flow cytometry was performed using a FACSCanto (BD Biosciences, San Jose, Calif., USA).

Chain of Mcl-1 (Q07820 171-327): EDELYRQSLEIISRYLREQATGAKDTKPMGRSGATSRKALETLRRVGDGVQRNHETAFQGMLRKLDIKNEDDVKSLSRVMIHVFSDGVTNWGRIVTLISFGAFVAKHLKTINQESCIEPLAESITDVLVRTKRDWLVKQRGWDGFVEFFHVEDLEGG
Chain of Bcl-xL (Q07817 other isoform, or with tags, fused parts or gaps DEL45-85): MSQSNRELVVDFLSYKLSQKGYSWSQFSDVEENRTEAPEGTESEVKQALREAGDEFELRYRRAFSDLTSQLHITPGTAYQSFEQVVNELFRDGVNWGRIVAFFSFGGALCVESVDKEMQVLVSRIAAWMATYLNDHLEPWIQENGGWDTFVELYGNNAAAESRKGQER
T2 sequence (Q07820 whole entry, one chain of several): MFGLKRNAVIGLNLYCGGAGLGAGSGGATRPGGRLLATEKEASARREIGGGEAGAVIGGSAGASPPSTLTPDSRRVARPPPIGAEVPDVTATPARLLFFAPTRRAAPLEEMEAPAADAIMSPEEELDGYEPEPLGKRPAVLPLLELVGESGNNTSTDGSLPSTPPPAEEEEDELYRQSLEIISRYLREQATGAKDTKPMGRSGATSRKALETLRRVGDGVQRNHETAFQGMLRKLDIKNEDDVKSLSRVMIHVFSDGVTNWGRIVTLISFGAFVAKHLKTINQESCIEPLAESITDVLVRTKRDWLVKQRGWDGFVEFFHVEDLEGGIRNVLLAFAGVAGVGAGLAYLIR
T1 sequence (P10415 with tags, fused parts or gaps with the stated changes): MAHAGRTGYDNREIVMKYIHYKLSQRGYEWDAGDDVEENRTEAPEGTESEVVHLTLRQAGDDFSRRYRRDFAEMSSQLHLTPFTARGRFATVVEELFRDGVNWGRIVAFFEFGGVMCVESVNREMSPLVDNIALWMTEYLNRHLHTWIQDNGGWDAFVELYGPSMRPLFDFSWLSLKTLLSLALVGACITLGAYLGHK

O=C(O)CSc1cc(NS(=O)(=O)c2ccc(Br)cc2)c2ccccc2c1O [Compound 9, 2-((4-(4-Bromophenylsulfonamido)-1-hydroxynaphthalen-2-yl)thio)acetic acid]
fold improved binding to Mcl-1 compared to 2 (Mcl-1): 7 fold
Ki (Mcl-1; FP and SPR based binding studies, read-out: Ki to Mcl-1): 0.49 µM
IC50 (Mcl-1; competitive FP, Flu-BID 2 nM, Mcl-1 90 nM, read-out: Mcl-1 IC50 ± SD): 1.87 ± 0.22 µM
Ki (Mcl-1; competitive FP, Ki calculated from IC50, read-out: Mcl-1 Ki ± SD): 0.49 ± 0.06 µM
Ki (Bcl-2 [1]): 23.8 ± 1.81 µM
fold lower affinity to Bcl-2 than to Mcl-1 (selectivity) (Bcl-2 [2]): more than 50 fold
fold lower affinity to Bcl-xL than to Mcl-1 (selectivity) (Bcl-xL): more than 50 fold
Ki (Bcl-xL; read-out: Bcl-xL Ki ± SD): 33 ± 4.33 µM
IC50 (BxPC-3): 3.4 ± 0.4 µM
IC50 (Panc-1): 4.4 ± 1.3 µM
IC50 (MiaPaCa-2): 12.5 ± 1.01 µM
IC50 (AsPc1): 16.1 ± 4.2 µM
early apoptotic cells (Panc-1 cells; 5 μM, 24 hours): 15%
early apoptotic cells (Panc-1 cells; 5 μM, 48 hours): 21%
early apoptotic cells (Panc-1 cells; 10 μM, 24 hours): 21%
early apoptotic cells (Panc-1 cells; 10 μM, 48 hours): 49%
inhibition of endogenous interactions of Bax and Bak with Mcl-1 [3]: complete inhibition
apoptosis in MEF WT cells [4]: more than 60%
apoptotic cells in MEF DKO cells [5]: 16%
concentration from which activated Bax increases [6]: ≥ 5 µM
half-life at 1 μM [7]: 45 min
apoptotic cells, early event ([8]; Pt 90620372, treated): 10.1%
apoptotic cells, late event ([8]; Pt 90620372, treated): 19.8%
apoptotic cells, early events ([8]; Pt 957034714, treated): 32.9%
apoptotic cells, late events ([8]; Pt 957034714, treated): 62.9%
apoptotic cells, early events ([8]; Pt 957060476, treated): 13.3%
apoptotic cells, late events ([8]; Pt 957060476, treated): 26.6%
